In article PMC12004904, “Antifouling Activity of Xylemin, Its Structural Analogs, and Related Polyamines” (Chemistry & Biodiversity, 2025):
≈ marks a conversion by molar mass, not a printed value.

Tests used:
barnacle A. amphitrite = tested on: barnacle A. amphitrite; design: method as in ref 30 = [30]; 30 J. A. Ponasik , S. Conova , D. Kinghorn , W. A. Kinney , D. Rittschof , and B. Ganem , “ Pseudoceratidine, a Marine Natural Product with Antifouling Activity: Synthetic and Biological Studies ,” Te; conditions: cited from earlier work
xylem formation = tested on: xylem formation; design: method as in PMID 26879262; conditions: cited from earlier work
[1] = tested on: cypris larvae of the barnacle Amphibalanus amphitrite; assay: Antifouling (settlement inhibition) assay against barnacle cypris larvae; type: in vivo; conditions: 96 h; for EC50: Amphibalanus amphitrite; for EC50 / Antifouling activity EC50: cypris larvae, 24‐well plates, 25°C, dark, concentration reducing larval settlement to 50% of negative control; for Antifouling (settlement‐inhibitory) activity in words: up to 50 µg/mL
Protocol: First, the biological activities of xylemin (1) and its related compounds were assayed against the cypris larvae of the barnacle A. amphitrite. The larvae were treated using 24‐well polystyrene plates with 6 different concentrations of the compounds at 25°C in the dark for 96 h.
Evaluation of the biological activity and statistical analysis were conducted according to the previous work. Adult barnacles of A. amphitrite attached to stones were collected in Kobe, Japan, in 2023 and maintained in aquaria. Nauplii released from adults were cultured in filtered seawater (FSW) with penicillin/streptomycin (FUJIFILM Wako Pure Chemical Corp., Osaka, Japan) and fed Chaetoceros calcitrans at 25°C, under a 12 h light/12 h dark cycle. The larvae reached the cypris stage after 5–6 days. Cyprids were collected, rinsed with FSW, and stored in the dark at 5°C for 3–4 days until use. The effects of the compounds on barnacle cyprids were evaluated using 24‐well polystyrene plates (Corning Inc., Corning, NY, USA). Each compound was dissolved in MeOH, and the solution was diluted with the same solvent to concentrations of 0.01, 0.03, 0.1, 0.3, 1.0, and 5.0 µg/µL. Aliquots (10 µL) of the solutions were added to the wells of the polystyrene plates and air‐dried. Each well was charged with approximately ten cypris larvae and FSW (1.0 mL). The plates were incubated at 25°C in the dark for 96 h. […] Each concentration was tested in three wells, and the experiment was performed three times with different batches of larvae. The assay was conducted using CuSO4 (0.01, 0.03, 0.1, 0.3, 1.0, 3.0, and 10 µg) as a positive control. An assay without any compound was used as a negative control. Settlement inhibition was calculated based on negative control settlement. Antifouling activity (EC50) and toxicity (LC50) were calculated using probit analyses. EC50 indicates the concentration that reduces the larval settlement to 50% of the negative control. LC50 indicates the concentration that causes 50% mortality.

[2] = tested on: thermospermine synthase ACAULIS5 (ACL5); design: method as in ref 25 = [25]; 25 H. Takamura , H. Motose , T. Otsu , et al., “ Chemical Synthesis and Biological Effect on Xylem Formation of Xylemin and Its Analogues ,” European Journal of Organic Chemistry 2020 ( 2020 ): 2745 –; conditions: cited from earlier work
[3] = tested on: zooplankton Artenia larvae; design: method as in PMID 27919420; conditions: cited from earlier work

O=C(O)c1cc(Br)c(Br)[nH]1 [4,5‐dibromopyrrole‐2‐carboxylic acid]
Antifouling activity EC50 (barnacle A. amphitrite): 15 µg/mL

CCCNCCCCN [Compound 1, N‐(4‐aminobutyl)propylamine]
Xylem formation / differentiation (xylem formation): enhanced xylem formation | EC50 [1]: 4.25 µg/mL (≈ 32.6 µM) | Expression of ACL5 [2]: promoted the expression

CCCNCCCCNC(=O)OC(C)(C)C [Compound 2]
EC50 [1]: 6.11 µg/mL (≈ 26.5 µM)

CCC(CC)NCCCCN [Compound 3, N‐(4‐aminobutyl)‐1‐ethylpropylamine]
EC50 [1]: > 50 µg/mL

NCCCCNC1CCCC1 [Compound 4, N‐(4‐aminobutyl)cyclopentylamine]
Xylem formation / differentiation (xylem formation): significant activity in promoting xylem differentiation | EC50 [1]: > 50 µg/mL | Antifouling (settlement‐inhibitory) activity in words [1]: no inhibitory activity

NCCCCNC1CCCCC1 [Compound 5, N‐(4‐aminobutyl)cyclohexylamine]
EC50 [1]: > 50 µg/mL | Antifouling (settlement‐inhibitory) activity in words [1]: lacked antifouling activity

NCCCCNC1CCCCCC1 [Compound 6, N‐(4‐aminobutyl)cycloheptylamine]
EC50 [1]: > 50 µg/mL | Antifouling (settlement‐inhibitory) activity in words [1]: lacked antifouling activity

NCCCCN [Compound 7, putrescine, reference compound]
EC50 [1]: > 50 µg/mL | Antifouling (settlement‐inhibitory) activity in words [1]: non‐antifouling activity

NCCCCNCCCN [Compound 8, spermidine, reference compound]
Antifouling activity EC50 [1]: >50 µg/mL | Antifouling (settlement‐inhibitory) activity in words [1]: did not exhibit antifouling activity

NCCCNCCCCNCCCN [Compound 9, spermine, reference compound]
Antifouling activity EC50 [1]: >50 µg/mL

NCCCCNCCCNCCCN [Compound 10, thermospermine, reference compound]
Antifouling activity EC50 [1]: >50 µg/mL

CN(C)C(=O)Nc1ccc(Cl)c(Cl)c1 [Diuron]
LC50 (50% lethal concentration) [3]: 30.6 µg/mL (≈ 131 µM)

NCCCCNC1CCCC1 [N‐(4‐aminobutyl)cyclopentylamine]
Xylem formation / differentiation (xylem formation): enhanced xylem formation | Expression of ACL5 [2]: promoted the expression

NCCCCNCCCN [spermidine]
EC50 [1]: > 50 µg/mL

NCCCNCCCCNCCCN [spermine]
EC50 [1]: > 50 µg/mL

NCCCCNCCCNCCCN [thermospermine]
EC50 [1]: > 50 µg/mL
